According to PubChem BioAssay AID330 (DTP/NCI, 2004):
Several values for one entry are separate records, joined by “and”; a condition that tells them apart may be missing. Equal values may be shown once. Toxic doses and inconclusive results are not listed.

Tested on: P388 leukemia ip, CD2F1 mice, survival T/C
Experiment: NCI In Vivo Anticancer Drug Screen. Data for tumor model P388 Leukemia (intraperitoneal) in CD2F1 (CDF1) mice
Conditions: endpoint: median survival time, higher = longer survival
Method in brief: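 Mice carrying the transplanted tumor received test compound or vehicle. Survival was recorded in each group, and the value is the treated-group measurement divided by that of the vehicle-treated control group.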

[1] = dose: 6.25 mg/kg/injection, schedule: Q01DX005 (ip), vehicle: Klucel (hydroxypropylcellulose) (HPC)
[2] = dose: 12.5 mg/kg/injection, schedule: Q01DX005 (ip), vehicle: Klucel (hydroxypropylcellulose) (HPC)
[3] = dose: 25.0 mg/kg/injection, schedule: Q01DX005 (ip), vehicle: Klucel (hydroxypropylcellulose) (HPC)
[4] = dose: 50.0 mg/kg/injection, schedule: Q01DX005 (ip), vehicle: Klucel (hydroxypropylcellulose) (HPC)
[5] = dose: 100.0 mg/kg/injection, schedule: Q04DX002 (ip), vehicle: saline with Tween-80
[6] = dose: 50.0 mg/kg/injection, schedule: Q01DX009 (ip), vehicle: Klucel (hydroxypropylcellulose) (HPC)
[7] = dose: 200.0 mg/kg/injection, schedule: Q01DX009 (ip), vehicle: Klucel (hydroxypropylcellulose) (HPC)
[8] = dose: 200.0 mg/kg/injection, schedule: Q04DX002 (ip), vehicle: saline with Tween-80
[9] = dose: 400.0 mg/kg/injection, schedule: Q04DX002 (ip), vehicle: saline with Tween-80
[10] = dose: 100.0 mg/kg/injection, schedule: Q01DX009 (ip), vehicle: Klucel (hydroxypropylcellulose) (HPC)
[11] = dose: 60.0 mg/kg/injection, schedule: Q01DX005 (ip), vehicle: saline with Tween-80
[12] = dose: 120.0 mg/kg/injection, schedule: Q01DX005 (ip), vehicle: saline with Tween-80
[13] = dose: 240.0 mg/kg/injection, schedule: Q01DX005 (ip), vehicle: saline with Tween-80
[14] = dose: 50.0 mg/kg/injection, schedule: Q01DX005 (ip), vehicle: saline with Tween-80
[15] = dose: 100.0 mg/kg/injection, schedule: Q01DX005 (ip), vehicle: saline with Tween-80

COc1cccc2c1C(=O)c1c(O)c3c(c(O)c1C2=O)CC(O)(/C(C)=N/NS(=O)(=O)c1ccc(C)cc1)CC3OC1CC(N)C(O)C(C)O1 (configuration not stated)
T/C (dose: 0.78 mg/kg/injection, schedule: Q01DX009 (ip), vehicle: water): 118 % of control
T/C (dose: 1.56 mg/kg/injection, schedule: Q01DX009 (ip), vehicle: water): 113 % of control
T/C (dose: 12.5 mg/kg/injection, schedule: Q01DX009 (ip), vehicle: water): 153 % of control
T/C (dose: 25.0 mg/kg/injection, schedule: Q01DX009 (ip), vehicle: water): 179 % of control

O=C1c2ccccc2C=c2c1nc1c(O)ccc3cccc2c31
T/C [1]: 101 % of control
T/C [2]: 100 % of control
T/C [3]: 111 % of control
T/C [4]: 97 % of control

Fc1ccc(NP(=S)(Nc2ccc(F)cc2F)Nc2ccc(F)cc2F)c(F)c1
T/C (dose: 25.0 mg/kg/injection, schedule: Q04DX002 (ip), vehicle: saline with Tween-80): 101 % of control
T/C (dose: 50.0 mg/kg/injection, schedule: Q04DX002 (ip), vehicle: saline with Tween-80): 104 % of control
T/C [5]: 102 % of control and 105 % of control

O=C(NCCCCOc1ccc([N+](=O)[O-])cc1Cl)NC1CCCCC1
T/C (dose: 50.0 mg/kg/injection, schedule: Q01DX001 (ip), vehicle: saline with Tween-80): 90 % of control
T/C (dose: 100.0 mg/kg/injection, schedule: Q01DX001 (ip), vehicle: saline with Tween-80): 100 % of control
T/C (dose: 200.0 mg/kg/injection, schedule: Q01DX001 (ip), vehicle: saline with Tween-80): 100 % of control

CCC1C(=O)CC(c2ccc(OC)cc2)OC1c1ccc(OC)cc1 (configuration not stated)
T/C (dose: 50.0 mg/kg/injection, schedule: Q01DX009 (ip), vehicle: saline): 88 % of control
T/C (dose: 100.0 mg/kg/injection, schedule: Q01DX009 (ip), vehicle: saline): 96 % of control
T/C (dose: 200.0 mg/kg/injection, schedule: Q01DX009 (ip), vehicle: saline): 99 % of control

Cc1ccc(C)c(NC(=O)Nc2nccs2)c1
T/C (dose: 25.0 mg/kg/injection, schedule: Q01DX009 (ip), vehicle: Klucel (hydroxypropylcellulose) (HPC)): 99 % of control
T/C [6]: 90 % of control
T/C [7]: 91 % of control

Cc1ccc(S(=O)(=O)N/N=C\c2cccnc2)cc1
T/C (dose: 12.5 mg/kg/injection, schedule: Q01DX009 (ip), vehicle: other): 105 % of control
T/C (dose: 25.0 mg/kg/injection, schedule: Q01DX009 (ip), vehicle: other): 110 % of control
T/C (dose: 50.0 mg/kg/injection, schedule: Q01DX009 (ip), vehicle: other): 105 % of control
T/C (dose: 100.0 mg/kg/injection, schedule: Q01DX009 (ip), vehicle: other): 109 % of control and 95 % of control
T/C (dose: 200.0 mg/kg/injection, schedule: Q01DX009 (ip), vehicle: other): 99 % of control and 100 % of control
T/C (dose: 400.0 mg/kg/injection, schedule: Q01DX009 (ip), vehicle: other): 101 % of control

CCC1N=C(N)N=C(N)N1c1ccc(Cl)c(Cl)c1 (configuration not stated)
T/C (dose: 3.12 mg/kg/injection, schedule: Q01DX005 (ip), vehicle: Klucel (hydroxypropylcellulose) (HPC)): 104 % of control and 96 % of control
T/C [1]: 102 % of control and 105 % of control and 107 % of control
T/C [2]: 113 % of control and 114 % of control and 97 % of control
T/C [3]: 111 % of control and 114 % of control

CCOc1ccnc2c(C)c3c([nH]c4ccccc43)c(C)c12
T/C [5]: 98 % of control
T/C [8]: 94 % of control
T/C [9]: 96 % of control

CC(Oc1ccc(Oc2ccc(Cl)cc2)cc1)C(=O)O (configuration not stated)
T/C [6]: 102 % of control
T/C [10]: 90 % of control
T/C [7]: 89 % of control

CC1CC(c2ccccc2Cl)C(c2ccccc2)C(=O)O1 (configuration not stated)
T/C (dose: 100.0 mg/kg/injection, schedule: Q04DX003 (ip), vehicle: Klucel (hydroxypropylcellulose) (HPC)): 100 % of control
T/C (dose: 200.0 mg/kg/injection, schedule: Q04DX003 (ip), vehicle: Klucel (hydroxypropylcellulose) (HPC)): 106 % of control
T/C (dose: 400.0 mg/kg/injection, schedule: Q04DX003 (ip), vehicle: Klucel (hydroxypropylcellulose) (HPC)): 108 % of control

O=C=Nc1nc(Cl)c(SC(F)(F)F)c(Cl)n1
T/C [11]: 97 % of control
T/C [12]: 98 % of control
T/C [13]: 108 % of control

C=C1C(=O)OC2CC1C(O)C/C(C)=C/CC/C(C)=C/CCC2(C)O (configuration not stated)
T/C (dose: 2.0 mg/kg/injection, schedule: Q01DX009 (ip), vehicle: Klucel (hydroxypropylcellulose) (HPC)): 110 % of control
T/C (dose: 4.0 mg/kg/injection, schedule: Q01DX009 (ip), vehicle: Klucel (hydroxypropylcellulose) (HPC)): 110 % of control
T/C (dose: 8.0 mg/kg/injection, schedule: Q01DX009 (ip), vehicle: Klucel (hydroxypropylcellulose) (HPC)): 122 % of control and 92 % of control
T/C (dose: 16.0 mg/kg/injection, schedule: Q01DX009 (ip), vehicle: Klucel (hydroxypropylcellulose) (HPC)): 105 % of control and 114 % of control
T/C (dose: 32.0 mg/kg/injection, schedule: Q01DX009 (ip), vehicle: Klucel (hydroxypropylcellulose) (HPC)): 106 % of control and 107 % of control

CSCCC(NC=O)C(=O)NC(CC(C)C)C(=O)NC(Cc1ccccc1)C(=O)O (configuration not stated)
T/C (dose: 12.5 mg/kg/injection, schedule: Q01DX005 (ip), vehicle: distilled water + Tween-80): 98 % of control
T/C (dose: 25.0 mg/kg/injection, schedule: Q01DX005 (ip), vehicle: distilled water + Tween-80): 98 % of control
T/C (dose: 50.0 mg/kg/injection, schedule: Q01DX005 (ip), vehicle: distilled water + Tween-80): 100 % of control
T/C (dose: 100.0 mg/kg/injection, schedule: Q01DX005 (ip), vehicle: distilled water + Tween-80): 89 % of control
T/C (dose: 200.0 mg/kg/injection, schedule: Q01DX005 (ip), vehicle: distilled water + Tween-80): 97 % of control

COC1=C(C)C(=O)c2c(c(COC(N)=O)c3n2CC2C3N2C)C1=O (configuration not stated)
T/C (dose: 6.25 mg/kg/injection, schedule: Q04DX003 (ip), vehicle: saline with Tween-80): 100 % of control
T/C (dose: 12.5 mg/kg/injection, schedule: Q04DX003 (ip), vehicle: saline with Tween-80): 90 % of control

O=C(O)c1ccccc1SSc1ccccc1C(=O)O
T/C [6]: 96 % of control
T/C [10]: 102 % of control

COc1ccc2c(C)cc(N/N=C/c3ccccc3)nc2c1
T/C [4]: 89 % of control
T/C (dose: 100.0 mg/kg/injection, schedule: Q01DX005 (ip), vehicle: Klucel (hydroxypropylcellulose) (HPC)): 98 % of control
T/C (dose: 200.0 mg/kg/injection, schedule: Q01DX005 (ip), vehicle: Klucel (hydroxypropylcellulose) (HPC)): 98 % of control

O=Nc1c(=O)[nH]c(O)c2ccccc12
T/C (dose: 25.0 mg/kg/injection, schedule: Q01DX005 (ip), vehicle: saline with Tween-80): 100 % of control
T/C [14]: 107 % of control
T/C [15]: 93 % of control

CCOC(=O)c1cn(CC)c2cc(-n3cccc3)c(F)cc2c1=O
T/C [11]: 98 % of control
T/C [12]: 97 % of control
T/C [13]: 94 % of control

CC(=O)C(N=Nc1ccc(S(=O)(=O)Nc2ncccn2)cc1)C(C)=O
T/C (dose: 100.0 mg/kg/injection, schedule: Q04DX003 (ip), vehicle: saline with Tween-80): 92 % of control
T/C (dose: 200.0 mg/kg/injection, schedule: Q04DX003 (ip), vehicle: saline with Tween-80): 88 % of control
T/C (dose: 400.0 mg/kg/injection, schedule: Q04DX003 (ip), vehicle: saline with Tween-80): 90 % of control

COc1ccc2ncc(C)c(COC(C)=O)c2c1
T/C [5]: 102 % of control
T/C [8]: 93 % of control
T/C [9]: 97 % of control

Cc1cccc(C(=O)OCCBr)c1
T/C (dose: 18.75 mg/kg/injection, schedule: Q01DX009 (ip), vehicle: saline sonified): 104 % of control
T/C (dose: 37.5 mg/kg/injection, schedule: Q01DX009 (ip), vehicle: saline sonified): 109 % of control
T/C (dose: 49.5 mg/kg/injection, schedule: Q01DX009 (ip), vehicle: saline sonified): 109 % of control
T/C (dose: 75.0 mg/kg/injection, schedule: Q01DX009 (ip), vehicle: saline sonified): 104 % of control
T/C (dose: 112.5 mg/kg/injection, schedule: Q01DX009 (ip), vehicle: saline sonified): 104 % of control

C#Cc1cccc(N=Cc2cc(Cl)cc(C)c2O)c1
T/C [14]: 88 % of control
T/C [15]: 91 % of control
T/C (dose: 200.0 mg/kg/injection, schedule: Q01DX005 (ip), vehicle: saline with Tween-80): 102 % of control

N#CC1(N)CC2CCCCC2CC1c1ccccc1 (configuration not stated)
T/C [5]: 106 % of control
T/C [8]: 101 % of control
T/C [9]: 101 % of control
